Data published in ChEMBL document CHEMBL4390652, “Design, biological evaluation and X-ray crystallography of nanomolar multifunctional ligands targeting simultaneously acetylcholinesterase and glycogen synthase kinase-3” (Eur J Med Chem, 2019).

Experiments:
[1] = biological target: Calcium/calmodulin-dependent protein kinase type 1B (Homo sapiens) (UniProt Q6P2M8); experiment: Binding affinity to wild-type human partial length CAMK1B (W9 to A311 residues) expressed in mammalian expression system assessed as residual binding level at 10 uM by Kinomescan method relative to control
[2] = biological target: Cyclin-dependent kinase 2 homolog (Plasmodium falciparum (isolate 3D7)) (UniProt P61075); experiment: Binding affinity to wild-type Plasmodium falciparum full length PK5 (M1 to N288 residues) expressed in mammalian expression system assessed as residual binding level at 10 uM by Kinomescan method relative to control
Sequence of Cyclin-dependent kinase 2 homolog (Plasmodium falciparum (isolate 3D7)) (P61075 whole entry, the tested form may be a part): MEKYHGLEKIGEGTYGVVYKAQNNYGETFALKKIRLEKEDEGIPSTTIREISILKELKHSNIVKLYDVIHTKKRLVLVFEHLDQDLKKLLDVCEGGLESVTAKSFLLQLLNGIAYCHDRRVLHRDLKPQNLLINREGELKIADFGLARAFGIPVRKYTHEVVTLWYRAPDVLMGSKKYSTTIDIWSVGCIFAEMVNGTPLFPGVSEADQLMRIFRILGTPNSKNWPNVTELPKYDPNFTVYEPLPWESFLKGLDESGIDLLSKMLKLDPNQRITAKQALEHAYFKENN

[3] = biological target: Myosin light chain kinase 2, skeletal/cardiac muscle (Homo sapiens) (UniProt Q9H1R3); experiment: Binding affinity to wild-type human partial length MYLK2 (D258 to K570 residues) expressed in bacterial expression system assessed as residual binding level at 10 uM by Kinomescan method relative to control
[4] = biological target: Mitogen-activated protein kinase kinase kinase 7 (Homo sapiens) (UniProt O43318); experiment: Binding affinity to wild-type human partial length TAK1 (M1 to Q303 residues) expressed in mammalian expression system assessed as residual binding level at 10 uM by Kinomescan method relative to control
Sequence of Mitogen-activated protein kinase kinase kinase 7 (Homo sapiens) (O43318 whole entry, the tested form may be a part): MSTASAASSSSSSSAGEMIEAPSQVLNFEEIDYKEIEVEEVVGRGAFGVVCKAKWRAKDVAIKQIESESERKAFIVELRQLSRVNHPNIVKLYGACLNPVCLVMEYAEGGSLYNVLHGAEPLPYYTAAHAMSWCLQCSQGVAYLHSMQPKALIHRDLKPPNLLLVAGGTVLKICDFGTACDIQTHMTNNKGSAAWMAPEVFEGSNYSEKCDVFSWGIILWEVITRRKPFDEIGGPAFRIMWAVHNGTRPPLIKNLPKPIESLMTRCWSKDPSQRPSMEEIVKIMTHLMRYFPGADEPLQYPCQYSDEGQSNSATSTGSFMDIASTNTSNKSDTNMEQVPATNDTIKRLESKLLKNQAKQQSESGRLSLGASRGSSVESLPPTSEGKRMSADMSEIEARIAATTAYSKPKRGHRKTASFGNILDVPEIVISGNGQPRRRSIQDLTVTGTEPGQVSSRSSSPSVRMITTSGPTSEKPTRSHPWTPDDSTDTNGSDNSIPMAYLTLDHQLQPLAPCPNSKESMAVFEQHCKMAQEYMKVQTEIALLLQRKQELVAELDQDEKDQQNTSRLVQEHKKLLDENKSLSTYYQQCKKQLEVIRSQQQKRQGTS

[5] = biological target: Cyclin-dependent kinase 13 (Homo sapiens) (UniProt Q14004); experiment: Binding affinity to wild-type human partial length CDC2L5 (H675 to S1054 residues) expressed in mammalian expression system assessed as residual binding level at 10 uM by Kinomescan method relative to control
[6] = tested on: Epidermal growth factor receptor (Homo sapiens), P00533 [T790M]; experiment: Binding affinity to human partial length EGFR T790M mutant (R669 to G1022 residues) expressed in mammalian expression system assessed as residual binding level at 10 uM by Kinomescan method relative to control
[7] = tested on: Tyrosine-protein kinase ABL1 (Homo sapiens), P00519 [T315I]; experiment: Binding affinity to human non-phosphorylated ABL1 T315I mutant (S229 to K512 residues) expressed in mammalian expression system assessed as residual binding level at 10 uM by Kinomescan method relative to control
[8] = biological target: Serine/threonine-protein kinase tousled-like 1 (Homo sapiens) (UniProt Q9UKI8); experiment: Binding affinity to wild-type human partial length TLK1 (K447 to A754 residues) expressed in bacterial expression system assessed as residual binding level at 10 uM by Kinomescan method relative to control
[9] = tested on: Receptor-type tyrosine-protein kinase FLT3 (Homo sapiens), P36888 [UNDEFINED MUTATION]; experiment: Binding affinity to human partial length FLT3 ITD mutant expressed in bacterial expression system assessed as residual binding level at 10 uM by Kinomescan method relative to control
[10] = tested on: Receptor-type tyrosine-protein kinase FLT3 (Homo sapiens), P36888 [D835Y]; experiment: Binding affinity to human partial length FLT3 D835Y mutant (Q580 to Y969 residues) expressed in bacterial expression system assessed as residual binding level at 10 uM by Kinomescan method relative to control
[11] = biological target: Serine/threonine-protein kinase WNK2 (Homo sapiens) (UniProt Q9Y3S1); experiment: Binding affinity to wild-type human partial length WNK2 (V47 to D482 residues) expressed in mammalian expression system assessed as residual binding level at 10 uM by Kinomescan method relative to control
Caco-2 = experiment: Cytotoxicity against human Caco2 cells assessed as growth inhibition incubated for 48 hrs by Hoechst 33342 staining based assay; assay type: cell-based; conditions: Caco-2, 48 h
[12] = biological target: Ephrin type-B receptor 4 (Homo sapiens) (UniProt P54760); experiment: Binding affinity to wild-type human partial length EPHB4 (H585 to G892 residues) expressed in bacterial expression system assessed as residual binding level at 10 uM by Kinomescan method relative to control
Sequence of Ephrin type-B receptor 4 (Homo sapiens) (P54760 whole entry, the tested form may be a part): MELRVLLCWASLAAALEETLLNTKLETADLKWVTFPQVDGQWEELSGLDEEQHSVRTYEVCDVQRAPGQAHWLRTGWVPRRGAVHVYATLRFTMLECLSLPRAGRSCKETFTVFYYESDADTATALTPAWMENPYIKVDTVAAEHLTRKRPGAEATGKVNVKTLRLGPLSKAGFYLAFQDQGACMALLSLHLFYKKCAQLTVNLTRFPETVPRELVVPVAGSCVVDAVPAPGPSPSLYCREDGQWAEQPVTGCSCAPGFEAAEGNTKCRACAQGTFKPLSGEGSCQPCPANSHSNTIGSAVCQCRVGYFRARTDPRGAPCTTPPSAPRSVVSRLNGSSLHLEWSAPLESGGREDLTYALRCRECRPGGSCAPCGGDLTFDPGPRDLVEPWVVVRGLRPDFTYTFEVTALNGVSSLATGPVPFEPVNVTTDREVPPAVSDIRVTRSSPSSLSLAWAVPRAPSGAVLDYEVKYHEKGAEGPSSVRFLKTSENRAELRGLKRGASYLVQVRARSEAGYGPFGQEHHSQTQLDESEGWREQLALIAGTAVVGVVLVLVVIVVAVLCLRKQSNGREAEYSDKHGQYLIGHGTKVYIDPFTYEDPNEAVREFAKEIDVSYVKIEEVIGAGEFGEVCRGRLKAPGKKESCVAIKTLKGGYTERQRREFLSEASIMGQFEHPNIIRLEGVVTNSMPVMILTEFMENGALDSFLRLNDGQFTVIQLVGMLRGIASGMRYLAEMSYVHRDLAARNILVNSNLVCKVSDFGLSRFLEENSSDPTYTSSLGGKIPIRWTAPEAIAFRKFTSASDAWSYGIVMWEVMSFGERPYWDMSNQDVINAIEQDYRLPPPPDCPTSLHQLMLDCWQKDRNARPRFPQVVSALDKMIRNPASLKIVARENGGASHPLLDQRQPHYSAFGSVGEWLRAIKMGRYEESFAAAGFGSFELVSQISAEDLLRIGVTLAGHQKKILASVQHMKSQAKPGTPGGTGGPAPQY

[13] = tested on: Receptor-type tyrosine-protein kinase FLT3 (Homo sapiens), P36888 [R834Q]; experiment: Binding affinity to human partial length FLT3 R834Q mutant (V592 to Y969 residues) expressed in mammalian expression system assessed as residual binding level at 10 uM by Kinomescan method relative to control
[14] = biological target: Uncharacterized serine/threonine-protein kinase SBK3 (Homo sapiens) (UniProt P0C264); experiment: Binding affinity to wild-type human partial length SgK110 (L22 to R329 residues) expressed in bacterial expression system assessed as residual binding level at 10 uM by Kinomescan method relative to control
[15] = biological target: Mitogen-activated protein kinase kinase kinase 10 (Homo sapiens) (UniProt Q02779); experiment: Binding affinity to wild-type human partial length MLK2 (V52 to W380 residues) expressed in bacterial expression system assessed as residual binding level at 10 uM by Kinomescan method relative to control
[16] = biological target: Serine/threonine-protein kinase STK11 (Homo sapiens) (UniProt Q15831); experiment: Binding affinity to wild-type human full length LKB1 (M1 to Q433 residues) expressed in bacterial expression system assessed as residual binding level at 10 uM by Kinomescan method relative to control
Sequence of Serine/threonine-protein kinase STK11 (Homo sapiens) (Q15831 whole entry, the tested form may be a part): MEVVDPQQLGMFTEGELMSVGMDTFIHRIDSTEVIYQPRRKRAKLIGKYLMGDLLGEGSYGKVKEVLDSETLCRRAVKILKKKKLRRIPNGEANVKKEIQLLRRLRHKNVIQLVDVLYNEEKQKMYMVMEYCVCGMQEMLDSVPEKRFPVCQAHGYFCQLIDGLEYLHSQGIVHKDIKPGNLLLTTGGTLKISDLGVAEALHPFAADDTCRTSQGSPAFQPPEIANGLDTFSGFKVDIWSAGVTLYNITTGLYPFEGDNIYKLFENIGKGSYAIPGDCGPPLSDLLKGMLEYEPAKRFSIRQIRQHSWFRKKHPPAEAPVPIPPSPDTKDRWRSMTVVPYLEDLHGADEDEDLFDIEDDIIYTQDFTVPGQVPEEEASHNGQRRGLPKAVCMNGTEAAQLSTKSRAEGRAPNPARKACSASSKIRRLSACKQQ

[17] = biological target: Atypical kinase COQ8A, mitochondrial (Homo sapiens) (UniProt Q8NI60); experiment: Binding affinity to wild-type human full length ADCK3 (M280 to Q647 residues) expressed in bacterial expression system assessed as residual binding level at 10 uM by Kinomescan method relative to control
Sequence of Atypical kinase COQ8A, mitochondrial (Homo sapiens) (Q8NI60 163-647 limits assumed): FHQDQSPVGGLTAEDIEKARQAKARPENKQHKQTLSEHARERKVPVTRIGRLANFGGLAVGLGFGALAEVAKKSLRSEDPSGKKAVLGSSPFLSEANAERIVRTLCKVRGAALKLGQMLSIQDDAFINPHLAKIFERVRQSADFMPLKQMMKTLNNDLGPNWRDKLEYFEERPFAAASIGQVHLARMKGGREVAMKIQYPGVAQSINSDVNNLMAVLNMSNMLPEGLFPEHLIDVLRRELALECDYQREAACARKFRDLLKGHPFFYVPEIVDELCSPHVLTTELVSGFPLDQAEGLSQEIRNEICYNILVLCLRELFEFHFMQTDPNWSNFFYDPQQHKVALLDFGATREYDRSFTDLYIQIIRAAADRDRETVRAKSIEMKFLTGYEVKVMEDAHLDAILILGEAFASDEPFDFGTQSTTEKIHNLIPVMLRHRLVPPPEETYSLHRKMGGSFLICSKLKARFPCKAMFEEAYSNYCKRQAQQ

[18] = biological target: Serine/threonine-protein kinase DCLK3 (Homo sapiens) (UniProt Q9C098); experiment: Binding affinity to wild-type human partial length DCAMKL3 (E140 to V628 residues) expressed in bacterial expression system assessed as residual binding level at 10 uM by Kinomescan method relative to control
Sequence of Serine/threonine-protein kinase DCLK3 (Homo sapiens) (Q9C098 whole entry, the tested form may be a part): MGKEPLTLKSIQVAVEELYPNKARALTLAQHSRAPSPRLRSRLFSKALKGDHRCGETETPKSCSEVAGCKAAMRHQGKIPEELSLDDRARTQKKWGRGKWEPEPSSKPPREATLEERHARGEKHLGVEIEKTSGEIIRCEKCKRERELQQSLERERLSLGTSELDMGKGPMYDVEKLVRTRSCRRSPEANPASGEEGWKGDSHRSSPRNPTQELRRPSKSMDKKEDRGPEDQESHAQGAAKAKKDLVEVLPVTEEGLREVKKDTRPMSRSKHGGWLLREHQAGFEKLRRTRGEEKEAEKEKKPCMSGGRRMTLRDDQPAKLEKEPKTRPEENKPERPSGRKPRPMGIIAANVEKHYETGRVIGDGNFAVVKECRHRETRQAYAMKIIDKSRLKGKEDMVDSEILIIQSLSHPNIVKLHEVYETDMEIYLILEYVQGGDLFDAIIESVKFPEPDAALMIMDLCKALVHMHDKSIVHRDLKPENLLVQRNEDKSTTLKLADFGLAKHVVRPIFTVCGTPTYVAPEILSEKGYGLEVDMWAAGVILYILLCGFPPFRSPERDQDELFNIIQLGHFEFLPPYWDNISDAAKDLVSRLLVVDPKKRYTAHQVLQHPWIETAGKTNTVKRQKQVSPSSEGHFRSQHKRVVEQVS

[19] = biological target: Dual specificity tyrosine-phosphorylation-regulated kinase 1B (Homo sapiens) (UniProt Q9Y463); experiment: Binding affinity to wild-type human full length DYRK1B (M1 to S629 residues) expressed in bacterial expression system assessed as residual binding level at 10 uM by Kinomescan method relative to control
Sequence of Dual specificity tyrosine-phosphorylation-regulated kinase 1B (Homo sapiens) (Q9Y463 whole entry, looked up, the tested form may be a part): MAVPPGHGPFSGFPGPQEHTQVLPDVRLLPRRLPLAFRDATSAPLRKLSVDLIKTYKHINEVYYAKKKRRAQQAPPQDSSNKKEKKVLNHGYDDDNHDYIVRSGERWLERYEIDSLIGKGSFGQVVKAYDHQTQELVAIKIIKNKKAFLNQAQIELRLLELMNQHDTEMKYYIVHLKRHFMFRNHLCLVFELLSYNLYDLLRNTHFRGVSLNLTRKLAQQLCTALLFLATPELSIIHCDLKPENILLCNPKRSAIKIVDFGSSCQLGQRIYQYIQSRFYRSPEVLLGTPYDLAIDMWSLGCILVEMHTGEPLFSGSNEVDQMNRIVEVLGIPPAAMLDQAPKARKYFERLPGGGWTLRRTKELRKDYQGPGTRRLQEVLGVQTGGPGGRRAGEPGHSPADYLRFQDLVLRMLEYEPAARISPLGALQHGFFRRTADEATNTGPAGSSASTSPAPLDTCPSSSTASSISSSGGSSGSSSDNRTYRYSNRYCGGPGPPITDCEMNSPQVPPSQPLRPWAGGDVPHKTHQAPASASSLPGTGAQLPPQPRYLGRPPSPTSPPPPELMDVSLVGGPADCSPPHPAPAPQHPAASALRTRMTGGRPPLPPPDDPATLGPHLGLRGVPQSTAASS

[20] = biological target: Phosphatidylinositol 4-phosphate 3-kinase C2 domain-containing subunit beta (Homo sapiens) (UniProt O00750); experiment: Binding affinity to wild-type human partial length PIK3C2B (M1 to L1634 residues) expressed in mammalian expression system assessed as residual binding level at 10 uM by Kinomescan method relative to control
[21] = biological target: Serine/threonine-protein kinase OSR1 (Homo sapiens) (UniProt O95747); experiment: Binding affinity to wild-type human full length OSR1 (M1 to S527 residues) expressed in mammalian expression system assessed as residual binding level at 10 uM by Kinomescan method relative to control
[22] = biological target: Serine/threonine-protein kinase MARK2 (Homo sapiens) (UniProt Q7KZI7); experiment: Binding affinity to wild-type human partial length MARK2 (M1 to R450 residues) expressed in bacterial expression system assessed as residual binding level at 10 uM by Kinomescan method relative to control
Sequence of Serine/threonine-protein kinase MARK2 (Homo sapiens) (Q7KZI7 whole entry, the tested form may be a part): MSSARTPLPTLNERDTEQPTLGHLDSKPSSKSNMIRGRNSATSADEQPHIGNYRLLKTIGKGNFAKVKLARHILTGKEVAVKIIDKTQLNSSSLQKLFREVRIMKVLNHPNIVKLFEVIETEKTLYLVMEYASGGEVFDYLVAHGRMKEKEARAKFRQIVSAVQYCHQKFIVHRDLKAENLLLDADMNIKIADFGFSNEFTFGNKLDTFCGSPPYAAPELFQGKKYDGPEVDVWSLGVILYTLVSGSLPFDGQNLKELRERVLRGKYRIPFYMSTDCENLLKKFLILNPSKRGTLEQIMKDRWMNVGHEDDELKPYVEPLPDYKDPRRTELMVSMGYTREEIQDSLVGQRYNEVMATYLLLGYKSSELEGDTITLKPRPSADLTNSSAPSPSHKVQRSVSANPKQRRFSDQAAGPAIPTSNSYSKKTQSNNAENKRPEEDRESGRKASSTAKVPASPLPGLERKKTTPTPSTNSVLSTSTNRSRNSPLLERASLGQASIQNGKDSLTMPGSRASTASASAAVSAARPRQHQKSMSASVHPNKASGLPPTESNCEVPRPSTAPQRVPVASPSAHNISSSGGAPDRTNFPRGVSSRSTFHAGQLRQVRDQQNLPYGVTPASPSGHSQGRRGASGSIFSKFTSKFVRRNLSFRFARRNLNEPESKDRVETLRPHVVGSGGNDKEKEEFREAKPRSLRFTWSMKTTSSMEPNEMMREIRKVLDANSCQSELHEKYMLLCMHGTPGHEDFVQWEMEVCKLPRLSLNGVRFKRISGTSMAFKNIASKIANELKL

[23] = biological target: Mitogen-activated protein kinase 8 (Homo sapiens) (UniProt P45983); experiment: Binding affinity to wild-type human full length JNK1 (M1 to Q384 residues) expressed in mammalian expression system assessed as residual binding level at 10 uM by Kinomescan method relative to control

Structure (SMILES): O=C(Nc1cc(-c2cn(CCNc3c4c(nc5ccccc35)CCCC4)nn2)ccn1)Nc1cccc2c1C1CCCCN1C2=O (racemic)
- Activity [1]: 100%
- Activity [2]: 100%
- Activity [3]: 24%
- Activity [4]: 1.6%
- Activity [5]: 0.61%
- Activity [6]: 70%
- Activity [7]: 18%
- Activity [8]: 51%
- Activity [9]: 1%
- Activity [10]: 1.1%
- Activity [11]: 100%
- IC50 (Caco-2): 3 µM
- Activity [12]: 100%
- Activity [13]: 1.3%
- Activity [14]: 100%
- Activity [15]: 58%
- Activity [16]: 36%
- Activity [17]: 40%
- Activity [18]: 33%
- Activity [19]: 3.7%
- Activity [20]: 51%
- Activity [21]: 100%
- Activity [22]: 46%
- Activity [23]: 0.55%
